The results in this text go back to article PMC3694885, “Activity of Bradykinin B2 Receptor Is Regulated by Long-Chain Polyunsaturated Fatty Acids” (PLoS ONE, 2013).

This assay has as its target T1, bradykinin B2 receptor (B2R) (Homo sapiens, UniProt P30411).
T1 construct: gene BDKRB2; B2R transfected in HEK293 cells
T1 sequence (P30411 1-391): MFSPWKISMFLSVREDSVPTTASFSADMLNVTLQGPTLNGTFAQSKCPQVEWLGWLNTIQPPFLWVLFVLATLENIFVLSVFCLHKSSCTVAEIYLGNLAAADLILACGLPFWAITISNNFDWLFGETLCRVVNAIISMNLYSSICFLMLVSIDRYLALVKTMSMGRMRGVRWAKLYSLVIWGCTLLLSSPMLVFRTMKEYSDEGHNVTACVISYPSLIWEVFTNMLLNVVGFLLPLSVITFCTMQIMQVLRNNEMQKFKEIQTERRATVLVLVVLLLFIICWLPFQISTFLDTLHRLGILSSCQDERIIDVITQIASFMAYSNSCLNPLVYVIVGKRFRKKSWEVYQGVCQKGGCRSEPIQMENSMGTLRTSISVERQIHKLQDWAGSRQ
The assay is described as follows: B2R-dependent ERK phosphorylation in transfected HEK293, blocked by the B2R antagonist HOE-140. In kind it is cell-based.

Take `CC/C=C\C/C=C\C/C=C\C/C=C\C/C=C\C/C=C\CCC(=O)O` [DHA, docosahexaenoic acid]: the “B2R-dependent ERK phosphorylation in transfected HEK293, blocked by the B2R anta” value is on record as “EPA or DHA dependent ERK phosphorylation was inhibited by the selective B2R antagonist”.
